Assay results as given in US8198299B2, “Cycloalkylidene and heterocycloalkylidene inhibitor compounds” (Gilead Sciences, Inc., priority 2008, dated 2012).

biological target: HDAC 1 (Homo sapiens, UniProt Q13547); experiment: HDAC 1 inhibition assay with about 3-hour enzyme/compound preincubation (fluorophore/quencher peptide substrate); type: biochemical; conditions: 3-hour preincubation of enzyme and compound at room temperature; read-out: HDAC 1 inhibitory activity (IC50 [μM]) (3-hour preincubation)
Description: HDAC inhibitory activity of the compound of Example 1 was measured by two types of assays in which HDAC 1 and 6 were used as a target molecule. The first assay was carried out without preincubation after addition of the enzyme. The test compound was suspended in and titrated in DMSO. It was then spotted into a 384-well test plate. The enzyme, HDAC 1 or 6, was diluted in assay buffer containing 25 mM Tris-HCl (pH 8.0), 137 mM NaCl, 2.7 mM KCl, and 0.01% Tween-20 and added to the pre-spotted compound. The peptide substrate containing a fluorophore/quencher pair was diluted in the same assay buffer and added to the compound/enzyme mix initiating the reaction. The reaction incubated at room temperature for about 45 minutes. A concentrated developer solution was diluted in the assay buffer, and added to the reaction. The reaction was incubated at room temperature for about 15 minutes and relative fluorescence was read on an instrument reader.
The second assay is similar to the first assay described above, except that preincubation is carried out for about 3 hours after the enzyme is introduced. The test compound was suspended in, and titrated in DMSO. It was then spotted into a 384-well test plate. The enzyme, HDAC 1 or 6, was diluted in the same assay buffer as used in the previous assay and added to the pre-spotted compound. The enzyme/compound mix was incubated at room temperature for about 3 hours. The peptide substrate containing a fluorophore/quencher pair was diluted in the assay buffer and added to the compound/enzyme mix initiating the reaction. The reaction incubated at room temperature for 45 minutes. A concentrated developer solution was diluted in the assay buffer, and added to the reaction. The reaction was incubated at room temperature for about 15 minutes and relative fluorescence was read on an instrument reader.

Sequence of HDAC 1 (Q13547 whole entry, species assumed): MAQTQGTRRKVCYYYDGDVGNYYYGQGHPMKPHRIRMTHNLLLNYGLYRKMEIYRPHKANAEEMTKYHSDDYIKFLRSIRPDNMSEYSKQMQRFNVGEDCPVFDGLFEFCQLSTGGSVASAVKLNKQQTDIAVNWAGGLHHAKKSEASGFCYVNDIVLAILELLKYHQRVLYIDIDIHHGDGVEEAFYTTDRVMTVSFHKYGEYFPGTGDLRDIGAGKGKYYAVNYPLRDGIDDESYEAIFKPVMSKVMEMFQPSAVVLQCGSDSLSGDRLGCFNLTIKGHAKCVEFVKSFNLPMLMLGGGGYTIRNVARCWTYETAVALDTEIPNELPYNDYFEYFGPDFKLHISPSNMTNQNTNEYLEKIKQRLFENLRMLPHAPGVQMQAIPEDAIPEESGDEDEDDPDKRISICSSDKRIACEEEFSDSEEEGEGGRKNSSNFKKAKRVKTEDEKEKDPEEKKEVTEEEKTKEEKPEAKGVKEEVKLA

| SMILES | IC50 [µM] |
| --- | --- |
| Cc1csc(C2(c3ccc(C(=O)Nc4ccccc4N)cc3)CC2)n1 [Example 16, N-(2-aminophenyl)-4-(1-(4-methylthiazol-2-yl)cyclopropyl)benzamide] | 0.0988 |
| Nc1ccc(-c2cccs2)cc1NC(=O)c1ccc(C2(c3ncc(-c4cccnc4)s3)CCOCC2)cc1 [Example 51, N-(2-amino-5-(thiophen-2-yl)phenyl)-4-(4-(5-(pyridin-3-yl)thiazol-2-yl)tetrahydropyran-4-yl)benzamide] | 0.0039 |
| Cc1nc2ccccn2c1-c1csc(C2(c3ccc(C(=O)Nc4ccccc4N)cc3)CCOCC2)n1 [Example 9, N-(2-Amino-phenyl)-4-{4-[4-(2-methyl-imidazo[1,2-a]pyridin-3-yl)-thiazol-2-yl]-tetrahydro-pyran-4-yl}-benzamide] | 0.003 |
| Nc1ccccc1NC(=O)c1ccc(C2(c3nc(-c4cccnc4)cs3)CCCC2)cc1 [Example 6, N-(2-Amino-phenyl)-4-[1-(4-pyridin-3-yl-thiazol-2-yl)-cyclopentyl]-benzamide] | 0.012 |
| CCOc1csc(C2(c3ccc(C(=O)Nc4cc(-c5cccs5)ccc4N)cc3)CCOCC2)n1 [Example 37, N-(2-amino-5-(thiophen-2-yl)phenyl)-4-(4-(4-ethoxythiazol-2-yl)tetrahydropyran-4-yl)benzamide] | 0.00388 |
| Nc1ccccc1NC(=O)c1ccc(C2(c3nc(-c4ccc(Cl)nc4)cs3)CCOCC2)cc1 [Example 18, N-(2-aminophenyl)-4-(4-(4-(6-chloropyridin-3-yl)thiazol-2-yl)tetrahydropyran-4-yl)benzamide] | 0.0139 |
| Nc1ccccc1NC(=O)c1ccc(C2(c3nc(-c4ccc(N5CCNCC5)nc4)cs3)CCOCC2)cc1 [Example 35, N-(2-aminophenyl)-4-(4-(4-(6-(piperazin-1-yl)pyridin-3-yl)thiazol-2-yl)tetrahydropyran-4-yl)benzamide] | 0.0033 |
| Nc1ccc(F)cc1NC(=O)c1ccc(C2(c3nc(-c4cccnc4)cs3)CC2)cc1 [Example 19, N-(2-Amino-5-fluoro-phenyl)-4-[1-(4-pyridin-3-yl-thiazol-2-yl)-cyclopropyl]-benzamide] | 0.0518 |
| CC(=O)N1CCc2nc(C3(c4ccc(C(=O)Nc5cc(-c6cccs6)ccc5N)cc4)CCOCC3)sc2C1 [Example 28, 4-(4-(5-acetyl-4,5,6,7-tetrahydrothiazolo[5,4-c]pyridin-2-yl)tetrahydropyran-4-yl)-N-(2-amino-5-(thiophen-2-yl)phenyl)benzamide] | 0.0026 |
| Cc1nc2ccccn2c1-c1csc(C2(c3ccc(C(=O)NO)cc3)CC2)n1 [Example 2, N-hydroxy-4-{1-[4-(2-methyl-imidazo[1,2-a]pyridin-3-yl)-thiazol-2-yl]-cyclopropyl}-benzamide] | 0.024 |
| Cc1nc2ccccn2c1-c1csc(C2(c3ccc(C(=O)Nc4ccccc4N)cc3)CCCC2)n1 [Example 7] | 0.008 |
| COCCOc1ccc(-c2csc(C3(c4ccc(C(=O)Nc5ccccc5N)cc4)CCOCC3)n2)cn1 [Example 24, N-(2-aminophenyl)-4-(4-(4-(6-(2-methoxyethoxy)pyridin-3-yl)thiazol-2-yl)tetrahydropyran-4-yl)benzamide] | 0.013 |
| CN1CCc2nc(C3(c4ccc(C(=O)Nc5cc(-c6cccs6)ccc5N)cc4)CCOCC3)sc2C1 [Example 21, N-(2-amino-5-(thiophen-2-yl)phenyl)-4-(4-(5-methyl-4,5,6,7-tetrahydrothiazolo[5,4-c]pyridin-2-yl)tetrahydropyran-4-yl)benzamide] | 0.006 |
| Nc1ccc(-c2cccs2)cc1NC(=O)c1ccc(C2(c3ccccn3)CCOCC2)cc1 [Example 49] | 0.00247 |
| Cc1ccc(-c2ccc(N)c(NC(=O)c3ccc(C4(c5nccs5)CC4)cc3)c2)s1 [Example 52, N-(2-amino-5-(5-methylthiophen-2-yl)phenyl)-4-(1-(thiazol-2-yl)cyclopropyl)benzamide] | 0.00792 |
| Cc1cnc(C2(c3ccc(C(=O)Nc4cc(-c5ccc(F)cc5)ccc4N)cc3)CCOCC2)s1 [Example 63, N-(4-amino-4′-fluorobiphenyl-3-yl)-4-(4-(5-methylthiazol-2-yl)tetrahydropyran-4-yl)benzamide] | 0.00428 |
| Nc1ccc(F)cc1NC(=O)c1ccc(C2(c3nc(-c4cnccn4)cs3)CCOCC2)cc1 [Example 57, N-(2-amino-5-fluorophenyl)-4-(4-(4-(pyrazin-2-yl)thiazol-2-yl)tetrahydropyran-4-yl)benzamide] | 0.00774 |

| SMILES | IC50 [µM] |
| --- | --- |
| CC(=O)c1sc(C2(c3ccc(C(=O)Nc4ccccc4N)cc3)CC2)nc1C [Example 3, 4-[1-(5-Acetyl-4-methyl-thiazol-2-yl)-cyclopropyl]-N-(2-amino-phenyl)-benzamide] | 0.065 |
| Nc1ccc(-c2cccs2)cc1NC(=O)c1ccc(C2(c3nnn[nH]3)CCOCC2)cc1 [Example 38, 4-(4-(1H-tetrazol-5-yl)tetrahydropyran-4-yl)-N-(2-amino-5-(thiophen-2-yl)phenyl)benzamide] | 0.00311 |
| Cc1nc2ccccn2c1-c1csc(C2(c3ccc(C(=O)Nc4ccccc4N)cc3)CC2)n1 [Example 1, N-(2-amino-phenyl)-4-{1-[4-(2-methyl-imidazo[1,2-a]pyridin-3-yl)-thiazol-2-yl]-cyclopropyl}-benzamide] | 0.0239 |
| CN1CCc2nc(C3(c4ccc(C(=O)Nc5cc(F)ccc5N)cc4)CCOCC3)sc2C1 [Example 30, N-(2-amino-5-fluorophenyl)-4-(4-(5-methyl-4,5,6,7-tetrahydrothiazolo[5,4-c]pyridin-2-yl)tetrahydropyran-4-yl)benzamide] | 0.067 |
| CN1CCN(c2ccc(-c3csc(C4(c5ccc(C(=O)Nc6ccccc6N)cc5)CCOCC4)n3)cc2)CC1 [Example 47, N-(2-aminophenyl)-4-(4-(4-(4-(4-methylpiperazin-1-yl)phenyl)thiazol-2-yl)tetrahydropyran-4-yl)benzamide] | 0.00576 |
| Nc1ccccc1NC(=O)c1ccc(C2(c3nc4c(s3)CCCC4)CC2)cc1 [Example 11, N-(2-amino-phenyl)-4-[1-(4,5,6,7-tetrahydro-benzothiazol-2-yl)-cyclopropyl]-benzamide] | 0.069 |
| O=C(NO)c1ccc(C2(c3nc(-c4cccnc4)cs3)CCOCC2)cc1 [Example 42, N-hydroxy-4-(4-(4-(pyridin-3-yl)thiazol-2-yl)tetrahydropyran-4-yl)benzamide] | 0.0351 |
| Nc1ccc(-c2ccc(F)cc2)cc1NC(=O)c1ccc(C2(c3nccs3)CCOCC2)cc1 [Example 36, N-(4-amino-4′-fluorobiphenyl-3-yl)-4-(4-(thiazol-2-yl)tetrahydropyran-4-yl)benzamide] | 0.0029 |
| Nc1ccccc1NC(=O)c1ccc(C2(c3nc(-c4ccc(N5CCN(C6CC6)CC5)nc4)cs3)CCOCC2)cc1 [Example 34, N-(2-aminophenyl)-4-(4-(4-(6-(4-cyclopropylpiperazin-1-yl)pyridin-3-yl)thiazol-2-yl)tetrahydropyran-4-yl)benzamide] | 0.0066 |
| Nc1ccccc1NC(=O)c1ccc(C2(c3nc(-c4cnccn4)cs3)CC2)cc1 [Example 55, N-(2-aminophenyl)-4-(1-(4-(pyrazin-2-yl)thiazol-2-yl)cyclopropyl)benzamide] | 0.0444 |
| CN1CCc2nc(C3(c4ccc(C(=O)Nc5ccccc5N)cc4)CCOCC3)sc2C1 [Example 29, N-(2-aminophenyl)-4-(4-(5-methyl-4,5,6,7-tetrahydrothiazolo[5,4-c]pyridin-2-yl)tetrahydropyran-4-yl)benzamide] | 0.032 |
| CCOc1csc(C2(c3ccc(C(=O)Nc4cc(-c5ccc(F)cc5)ccc4N)cc3)CCOCC2)n1 [Example 40, N-(4-amino-4′-fluorobiphenyl-3-yl)-4-(4-(4-ethoxythiazol-2-yl)tetrahydropyran-4-yl)benzamide] | 0.00639 |
| Nc1ccccc1NC(=O)c1ccc(C2(c3nc(-c4ccc(N5CCCC5)nc4)cs3)CCOCC2)cc1 [Example 20, N-(2-aminophenyl)-4-(4-(4-(6-(pyrrolidin-1-yl)pyridin-3-yl)thiazol-2-yl)tetrahydropyran-4-yl)benzamide] | 0.019 |
| Nc1ccc(-c2cccs2)cc1NC(=O)c1ccc(C2(c3nccs3)CC2)cc1 [Example 50, N-(2-amino-5-(thiophen-2-yl)phenyl)-4-(1-(thiazol-2-yl)cyclopropyl)benzamide] | 0.00262 |
| Nc1ccccc1NC(=O)c1ccc(C2(c3nc(-c4cnccn4)cs3)CCOCC2)cc1 [Example 41, N-(2-aminophenyl)-4-(4-(4-(pyrazin-2-yl)thiazol-2-yl)tetrahydropyran-4-yl)benzamide] | 0.00702 |
| Nc1ccccc1NC(=O)c1ccc(C2(c3nc4c(s3)COCC4)CCOCC2)cc1 [Example 26, N-(2-aminophenyl)-4-(4-(6,7-dihydropyrano[4,3-d]thiazol-2-yl)tetrahydropyran-4-yl)benzamide] | 0.017 |
| Nc1ccc(-c2ccc(F)cc2)cc1NC(=O)c1ccc(C2(c3nnn[nH]3)CCOCC2)cc1 [Example 39, 4-(4-(1H-tetrazol-5-yl)tetrahydropyran-4-yl)-N-(4-amino-4′-fluorobiphenyl-3-yl)benzamide] | 0.00333 |
